Here are results for 2 compounds from patent publication EP0454060B1, “3-(Mercaptoalkyl)-quinazoline-2,4(1H,3H)-diones, processes for their preparation, and pharmaceutical compositions” (priority 1990, dated 1991).

In one data set the test system is Coxsackie A 9-Virus. Nature of the data set: Antiviral test in vitro. The class given is cell-based.
The subject of data set [1] is primären Hühnerembryonalzellen (2 Tage alt). Nature of the data set: Cell tolerance, microscopic reading. The class given is cell-based, Hühner. Details: key: 0̸: Am 5. Tag der mikroskopischen Ablesung keine morphologischen Veränderungen der Zellen.; ++++: Komplette Veränderungen der Zellschicht in Form von Abrundung, Granulierung und Ablösen der Zellen von der Glaswand.; +++: Analoge Veränderungen bei 3/4 des Zellrasens.; ++: Analoge Veränderungen bei 1/2 des Zellrasens.; +: Analoge Veränderungen bei 1/4 des Zellrasens. Conditions: HEZ, reading day 5. The source says: (§1) 0̸ = Am 5. Tag der mikroskopischen Ablesung keine morphologischen Veränderungen der Zellen. ++++ = Komplette Veränderungen der Zellschicht in Form von Abrundung, Granulierung und Ablösen der Zellen von der Glaswand. +++ = Analoge Veränderungen bei 3/4 des Zellrasens. ++ = Analoge Veränderungen bei 1/2 des Zellrasens. + = Analoge Veränderungen bei 1/4 des Zellrasens.

The subject of data set [2] is Human-Fibroblasten (2 Tage alt). Briefly: Cell tolerance, microscopic reading. The class given is cell-based. Details: key: 0̸: Am 5. Tag der mikroskopischen Ablesung keine morphologischen Veränderungen der Zellen.; ++++: Komplette Veränderungen der Zellschicht in Form von Abrundung, Granulierung und Ablösen der Zellen von der Glaswand.; +++: Analoge Veränderungen bei 3/4 des Zellrasens.; ++: Analoge Veränderungen bei 1/2 des Zellrasens.; +: Analoge Veränderungen bei 1/4 des Zellrasens. Conditions: HFi, reading day 5.
Text: as §1

The test system of data set [3] is MDBK (bovine Nierenzellen-Permanentzellinie). Nature of the data set: Cell tolerance, microscopic reading. Details: key: 0̸: Am 5. Tag der mikroskopischen Ablesung keine morphologischen Veränderungen der Zellen.; ++++: Komplette Veränderungen der Zellschicht in Form von Abrundung, Granulierung und Ablösen der Zellen von der Glaswand.; +++: Analoge Veränderungen bei 3/4 des Zellrasens.; ++: Analoge Veränderungen bei 1/2 des Zellrasens.; +: Analoge Veränderungen bei 1/4 des Zellrasens. The class given is cell-based. The following applies: MDKB, reading day 5.
Text: as §1

The test system of data set [4] is RH (humane Nierenzellen-Permanentzellinie). Nature of the data set: Cell tolerance, microscopic reading. The class given is cell-based. Also noted: key: 0̸: Am 5. Tag der mikroskopischen Ablesung keine morphologischen Veränderungen der Zellen.; ++++: Komplette Veränderungen der Zellschicht in Form von Abrundung, Granulierung und Ablösen der Zellen von der Glaswand.; +++: Analoge Veränderungen bei 3/4 des Zellrasens.; ++: Analoge Veränderungen bei 1/2 des Zellrasens.; +: Analoge Veränderungen bei 1/4 des Zellrasens. The following applies: reading day 5.
Text: as §1

The subject of a further data set is Vaccinia Lister. Briefly: Plaque reduction test on primary HEZ. Conditions: mean of two experiments. For orientation: Plaques are areas of infected cells; plaque reduction assays count them against a control.
Data set [5] deals with Kontaktüberempfindlichkeit vom verzögerten Typ (Effektor-T-Lymphozyten-Aktivität). Briefly: Percutaneous test for contact hypersensitivity after DNFB immunisation. The class given is in vivo, Meerschweinchen (Albino-Koloniezucht). Conditions: Sensibilisierungsgrad versus control group; 2 mg/kg daily peroral, day +1 to +6; screening values; from 120 stimulatory, below 80 suppressive. The source says: Der Nachweis einer immunregulatorischen Wirksamkeit wurde am Meerschweinchen (Albino-Koloniezucht) und u. a. mit Hilfe folgender Techniken geführt: • Perkutaner Test zum Nachweis einer Kontaktüberempfindlichkeit vom verzögerten Typ (Effektor-T-Lymphozyten-Aktivität), • Takatsy-Test zum Nachweis DNP-spezifischer Serumantikörper (humorale Immunantwort).
Der Nachweis der antiviralen Wirksamkeit erfolgte in vitro an Hühnerembryonalzellen mit Vertretern verschiedener Virusgruppen. 1. Untersuchungen zur immunregulatorischen Wirksamkeit 1.1 Perkutaner Test zum Nachweis einer Kontaktüberempfindlichkeit Die epikutane Applikation von Dinitrofluorbenzol (DNFB) führt beim Meerschweinchen und bei der Maus zur Entwicklung einer verzögerten Überempfindlichkeit, eines Immunstatus, der an die klonale Vermehrung TNP-spezifischer T-Lymphozyten (TDTH-Ly) gebunden ist. Erfolgt nach einer Latenzperiode von mindestens 5 Tagen eine erneute DNFB-Applikation, kommt es zu einer Freisetzung von Lymphokinen durch Reaktion mit den TDTH-Ly dieses Hautbereiches und dadurch zu einer lokal begrenzten Entzündungsreaktion. Sieben Tage nach der Immunisierung mit 1 %igem DNFB wurden die Flanken der Versuchstiere enthaart und durch Aufbringen je eines Tropfens 0,5 %, 0,1 %, 0,05 %, 0,025 % und 0,01 %iger DNFB-Lösung getestet. Die noch positive Konzentration ist dem Grad der Sensibilisierung umgekehrt proportional. Die Testergebnisse ergeben sich aus Stärke und Anzahl der positiven Hautreaktionen, der Stimulierungsindex (SI) aus dem Vergleich der Test- und Kontrolltiere. Die Substanzbehandlung erfolgte peroral. Mittels Schlundsonde wurde eine tägliche Dosis von 2 mg/kg Körpermasse als Suspension in Wasser gegeben. Behandlungsdauer: 1 Tag + 1 (ein Tag nach der Immunisierung) bis +6. Die Kontrolltiere erhielten nur die eingesetzte Lactose. 1.2 Takatsy-Test Nach Immunisierung mit Dinitrofluorbenzol (DNFB) kommt es beim Meerschweinchen auch zur Bildung DNP-spezifischer humoraler Antikörper, die bevorzugt der IgG1-Substanzklasse angehören. 14 Tage nach primärer epikutaner Applikation von DNFB wurde den Versuchstieren Blut durch Herzpunktion entnommen. Die Bestimmung der Antikörperkonzentration erfolgte nach einer von Takatsy beschriebenen Methode (Takatsy, G.: A new method for the preparation of serial dilutions in a quick and accurate way. Kiserletes Orvostudomany 2 (1950) 263 - 396). Als Indikatorzellen wurden TNP-beladene Schaferythrozyten verwendet (Kopplung nach Rittenberg und Pratt; Rittenberg, M. B. and Pratt, K. L.: Antitrinitrophenyl (TNP) plaque assay. Primary response of BALB/c mice to soluble and particulate immunogen. Proc. Soc. exp. Biol. Med., 132 (1969) 575 - 579). 1.3 Ergebnisse Sensibilisierungsgrad (%) und Serumantikörperkonzentration (AK-Titer-Differenz) gegenüber der jeweiligen Kontrollgruppe (Screening-Werte)
Aus den Werten wird deutlich, daß die Verbindungen der allgemeinen Formel I einen gut nachweisbaren Effekt auf die Effektor-T-Lymphozyten-abhängige verzögerte Uberempfindlichkeit haben. Kontaktdermatitis-Werte ab 120 (≙ 20 % Steigerung gegenüber der Kontrolle) bzw. unter 80 werden als Nachweis eines stimulatorischen bzw. suppressorischen Effektes angesehen. Antikörpertiter-Differenzen von >+1 bzw. <-1 verdeutlichen den stimulatorischen bzw. suppressorischen Effekt der Substanzen auf die humorale Immunantwort. 2. Untersuchungen zur immunstimulierenden Wirkung • 2.1 Plaque-Test zum Nachweis von SE-spezifischen IgM- und IgG-PBZ Zur Prüfung immunstimulierender Effekte wurde u. a. auch der Einfluß von Verbindungen der allgemeinen Formel I auf die humorale Immunantwort an Mäusen des Inzuchtstammes CBA und mittels Hämolyse-Plaque-Test (HPT) untersucht. Diese Technik erlaubt die quantitative und getrennte Erfassung IgM- und IgG-Antikörper produzierender Zellen (= Plaque bildende Zellen; PBZ). […]

Where [6] appears, read: 125 µmol/l in maintenance medium.
Setting [7] is: 250 µmol/l in maintenance medium.
Where [8] appears, read: 500 µmol/l in maintenance medium.
Setting [9] is: 1000 µmol/l in maintenance medium.
The mark [10] stands for this setting: 62,5 µmol/l in maintenance medium.

As to `O=c1[nH]c2ccccc2c(=O)n1CCS` [Beispiel 1, 3-(2-Mercaptoethyl)-chinazolin-2,4(1H,3H)-dion], the “antivirale Wirkung” value with Coxsackie A 9-Virus is “nicht antiviral wirksam”. The Zellverträglichkeit in data set [1] (setting [6]) is on record as 0̸; in data set [1] (setting [7]), 0̸; in data set [1] (setting [8]), “+”; in data set [1] (setting [9]) it was “+++”; in data set [1] (setting [10]) it was 0̸; in data set [2] (setting [6]), 0̸. Besides, the Zellverträglichkeit is on record as 0̸ in data set [2] (setting [7]); 0̸ in data set [2] (setting [8]); “++” in data set [2] (setting [9]); 0̸ in data set [2] (setting [10]); 0̸ in data set [3] (setting [6]); 0̸ in data set [3] (setting [7]). For the same compound, the Zellverträglichkeit entry is “++” in data set [3] (setting [8]); “++++” in data set [3] (setting [9]); 0̸ in data set [3] (setting [10]); 0̸ in data set [4] (setting [6]); 0̸ in data set [4] (setting [7]); “++” in data set [4] (setting [8]). Moreover, the Zellverträglichkeit result in data set [4] (setting [9]) was “+++”; in data set [4] (setting [10]), 0̸. Moreover, the “Plaquereduktion in % zur Viruskontrolle auf primären HEZ” value amounted to 96% in the data set with Vaccinia Lister (125 µmol/l); 100% in the data set on Vaccinia Lister (250 µmol/l); 87% with Vaccinia Lister (31,25 µmol/l, 31.25 µM); 92% with Vaccinia Lister (62,5 µmol/l, 62.5 µM).

`COc1cc2[nH]c(=O)n(CCCS)c(=O)c2cc1OC` [Beispiel 2, 3-(3-Mercaptoprop-1-yl)-6,7-dimethoxychinazolin-2,4(1H,3H)-dion]: the “Kontaktdermatitis (Kontrolle: 100) 24-Stunden-Reaktion” value in data set [5] was 180%.
